Reference: patent US20120220577A1, “GLYCINE B ANTAGONISTS” (Merz Pharma GmbH & Co KgaA, priority 2009, published 2012)
Like-named read-outs stand apart in the source and are kept apart here.

Tests used:
[1] = target: NMDA receptor glycine B site (Rattus norvegicus, UniProt P35439); assay: Calcium FLIPR studies, rat cortical neurons (NMDA/D-Serine induced intracellular calcium); type: cell-based; set-up: Primary neurons are prepared from cortices of embryonal rats at day 17 of pregnancy; endogenous in cells; host or cells: primary rat cortical neurons (E17, 11-13 DIV)
Protocol: Antagonistic potencies of the test compounds are functionally evaluated using electrophysiological whole cell patch-clamp recordings and/or fluorometric intracellular Ca^2+-imaging (FLIPR) screens.
Sprague-Dawley rat embryos (E 17) are decapitated and neocortices are dissected, trypsinized and carefully triturated. The cell suspension is plated on poly-D-lysine pre-coated 96-well Plates (Greiner, Frickenhausen, Germany) at a cell density of 55.000 cells/well. The neurons are cultivated in Neurobasal media containing B27-Supplement and […] L-Glutamine (Biochrom) at 37° C. in a humidified atmosphere of 5% CO2/95% air. Medium is exchanged completely at day 4 and to 50% on day 7. At the time of experiments neurons are 11-13 days in vitro.
The increase of intracellular calcium after stimulation with 30 μM NMDA and 1 μM D-Serine is measured using the fluorometric imaging plate reader (FLIPR) and the Calcium-4-Kit (both Molecular Devices, Ismaning, Germany). Prior to addition of agonist or antagonist (5 different concentrations, n=5) the medium is aspirated and cells are washed once before loading with 150 μL of loading buffer (1 h at room temperature), consisting of Ca-4 sensitive dye reconstituted in extracellular bath solution, pH 7.3. Subsequently, plates are transferred to FLIPR to detect increases in intracellular calcium after the addition of agonist, measured as relative fluorescence units (RFU). Antagonists are pre-incubated with the cells for 10 min at room temperature before the addition of the agonist and co-agonist.
The fluorescence signal increase after addition of agonist reflects the increase of intracellular calcium. Inconsistencies in the amount of cells per well are normalised by using the spatial uniformity correction of the FLIPR software (Screenworks, Molecular Devices). The mean of replicated temporal data (n=5) is calculated and used for graphical representation. For the evaluation of the antagonistic potency, the calcium changes in response to different concentrations of antagonist are determined using an area under the curve (AUC) calculation. All responses (RFU-values) are determined as percentage of control (=maximum response at 30 μM NMDA and 1 μM D-Serine). IC50 values are calculated according the four parameter logistic equation using GraFit (Erithacus Software).

[2] = target: T1, glycine binding pocket of the NMDA receptor (Rattus norvegicus, UniProt P35439); assay: [3H]MDL-105,519 displacement studies (rat cortical membranes)
T1 construct: For isolation of the cell membranes, the cortices are homogenized; from tissue; host or cells: rat cerebral cortex membranes (male Sprague-Dawley)
Protocol: Anaesthetised male Sprague-Dawley rats (200-250 g, Janvier, Le Genest-Isle, France) are decapitated and their brains removed rapidly. […] For isolation of the cell membranes, the cortices are homogenized in 20 volumes of ice-cold 0.32 M sucrose (Sigma-Aldrich, Taufkirchen, Germany) using a glass-Teflon homogenizer. The homogenate is centrifuged at 1000×g for 10 minutes, the pellet is discarded and the supernatant centrifuged at 20,000×g for 20 minutes. The resulting pellet is re-suspended in 20 volumes of distilled water and centrifuged for 20 minutes at 8000×g. The supernatant and the buffy coat are then centrifuged three times (48,000×g for 20 minutes) in the presence of 50 mM Tris-HCl, pH 8.0 (assay buffer). All centrifugation steps are carried out at 4° C. After resuspension in 5 volumes of 50 mM Tris-HCl, pH 7.5, the membrane suspension is frozen rapidly at −80° C. On the day of assay, the membranes are thawed and washed four times by resuspension in 50 mM Tris-HCl, pH 7.5, and centrifugation at 48,000×g for 20 minutes. The final pellet is suspended in assay buffer. […] The final protein concentration used for our studies is 400 μg/ml.
A robotic system designed for binding assays (Tecan Deutschland GmbH, Crailsheim, Germany) is loaded with the membrane solution, solutions for bound control (buffer/DMSO 20%), unlabeled glycine (1 mM) for evaluation of non-specific binding, all compounds to be tested (at 20-fold concentrations), radioligand and respective 96-well plates.
The protein/receptor concentration is held constant whereas the amount of specific bound radioligand is determined using increasing concentrations of ligand.
Firstly, the assay plates are loaded with membrane solution and are shaken at 4° C. The mother plates are then prepared by pipetting the compounds into assay buffer/20% DMSO to obtain the desired final concentrations (dose response curve with five different concentrations, e.g. 10, 3, 1, 0.3, and 0.1 μM). After transferring radioligand into the assay plates, the compounds are added (including the bound and the non-specific binding control). The final DMSO concentration is 1%. The assay plates are incubated and shaken at 4° C. for 1 h, before the mixture is exhausted as rapidly as possible via a vacuum manifold using the Multiscreen HTS glass fibre (type B) filter plates (Millipore, Schwalbach, Germany) under a constant vacuum of 450 mbar. The membranes are washed four times with cold assay buffer ([…]). 50 μL of Ultima Gold scintillation cocktail (PerkinElmer, Rodgau-Jügesheim, Germany) is added to the wet filter plates and incubated at room temperature overnight before counting the disintegration per minutes using a liquid scintillation counter (MicroBeta, PerkinElmer, Rodgau-Jügesheim, Germany).
The residual radioactivity after displacement of the test compound (n=5) is then corrected with respect to the set controls.

[3] = rat cortical neurons, stimulation with 30 μM NMDA and 1 μM D-Serine, antagonist pre-incubated 10 min, read-out: NMDA-FLIPR-rCTX-NAM - IC50
[4] = displacement of 2 nM [3H]-MDL-105,519, rat cortical membranes, read-out: NMDA-MDL 105519-r-CTX - IC50

Structure (SMILES)	IC50 [1, 3] [nM]	IC50 [2, 4] [nM]	IC50 [1] [nM]	IC50 [2] [nM]
O=C(O)Cc1ccc(NC(=O)COc2cc(C(=O)O)cc3cc(Cl)cc(Cl)c23)cn1 [Example 46, 4-[(6-Carboxymethyl-pyridin-3-ylcarbamoyl)-methoxy]-5,7-dichloro-naphthalene-2-carboxylic acid]	9410	1230		
O=C(O)c1cc(OC(C(=O)O)c2ccccc2)c2c(Cl)cc(Cl)cc2c1 (stereo not drawn) [Example 32, 4-(Carboxyphenylmethoxy)-5,7-dichloronaphthalene-2-carboxylic acid]	6490	1510		
CC(Oc1cc(C(=O)O)cc2cc(Cl)cc(Cl)c12)C(=O)Nc1ccccc1CO (stereo not drawn) [Example 17, 5,7-Dichloro-4-[1-(2-hydroxymethylphenylcarbamoyl)-ethoxy]-naphthalene-2-carboxylic acid]			12600	1190
NCc1ccc(OCC(=O)O)c(NC(=O)COc2cc(C(=O)O)cc3cc(Cl)cc(Cl)c23)c1 [Example 79, 4-[(5-Aminomethyl-2-carboxymethoxy-phenylcarbamoyl)-methoxy]-5,7-dichloro-naphthalene-2-carboxylic acid]	1650	89		
O=C(COc1cc(C(=O)O)cc2cc(Cl)cc(Cl)c12)NC(C(=O)O)c1ccccc1 (stereo not drawn) [Example 27, 4-{[(Carboxyphenylmethyl)-carbamoyl]-methoxy}-5,7-dichloronaphthalene-2-carboxylic acid]	3500	790		
CN(C(=O)COc1cc(C(=O)O)cc2cc(Cl)cc(Cl)c12)c1cccc(C(=O)O)c1 [Example 31, 4-{[(3-Carboxyphenyl)-methylcarbamoyl]-methoxy}-5,7-dichloronaphthalene-2-carboxylic acid]	4750	1090		
NC(=O)COc1ccccc1NC(=O)COc1cc(C(=O)O)cc2cc(Cl)cc(Cl)c12 [Example 95, 4-[(2-Carbamoylmethoxy-phenylcarbamoyl)-methoxy]-5,7-dichloro-naphthalene-2-carboxylic acid]	7170	641		
CC(Oc1cc(C(=O)O)cc2cc(Cl)cc(Cl)c12)C(=O)Nc1ccc(CO)cc1 (stereo not drawn) [Example 16, 5,7-Dichloro-4-[1-(4-hydroxymethylphenylcarbamoyl)-ethoxy]-naphthalene-2-carboxylic acid]	4660	690		
O=C(COc1cc(C(=O)O)cc2cc(Cl)cc(Cl)c12)NCc1ccncc1 [Example 105, 5,7-Dichloro-4-{[(pyridin-4-ylmethyl)-carbamoyl]-methoxy}-naphthalene-2-carboxylic acid]	7090	1030		
O=C(COc1cc(C(=O)O)cc2cc(Cl)cc(Cl)c12)Nc1ccc(Cc2nnn[nH]2)cc1 [Example 86, 5,7-Dichloro-4-{[4-(1H-tetrazol-5-ylmethyl)-phenylcarbamoyl]-methoxy}-naphthalene-2-carboxylic acid]	5750	1840		
O=C(O)c1cc(OC2CCN(c3ccccc3)C2=O)c2c(Cl)cc(Cl)cc2c1 (stereo not drawn) [Example 65, 5,7-Dichloro-4-(2-oxo-1-phenyl-pyrrolidin-3-yloxy)-naphthalene-2-carboxylic acid]	7540	1390		
O=C(COc1cc(C(=O)O)cc2cc(Cl)cc(Cl)c12)Nc1cccc(OCc2nnn[nH]2)c1 [Example 92, 5,7-Dichloro-4-{[3-(1H-tetrazol-5-ylmethoxy)-phenylcarbamoyl]-methoxy}-naphthalene-2-carboxylic acid]	3840	656		
O=C(O)COc1cccc(NC(=O)COc2cc(C(=O)O)cc3cc(Cl)cc(Cl)c23)c1 [Example 2, 4-[(3-Carboxymethoxyphenylcarbamoyl)-methoxy]-5,7-dichloronaphthalene-2-carboxylic acid]	3170	414		
CNC(=O)COc1ccccc1NC(=O)COc1cc(C(=O)O)cc2cc(Cl)cc(Cl)c12 [Example 91, 5,7-Dichloro-4-[(2-methylcarbamoylmethoxy-phenylcarbamoyl)-methoxy]-naphthalene-2-carboxylic acid]	10800	1270		
CC(Oc1cc(C(=O)O)cc2cc(Cl)cc(Cl)c12)C(=O)Nc1cccc(CO)c1 (stereo not drawn) [Example 25, 5,7-Dichloro-4-[1-(3-hydroxymethylphenylcarbamoyl)-ethoxy]-naphthalene-2-carboxylic acid]	7320	1030		
O=C(COc1cc(C(=O)O)cc2cc(Cl)cc(Cl)c12)Nc1ccccc1Cc1nnn[nH]1 [Example 100, 5,7-Dichloro-4-{[2-(1H-tetrazol-5-ylmethyl)-phenylcarbamoyl]-methoxy}-naphthalene-2-carboxylic acid]	4100	559		
O=C(O)c1cc(OCC(=O)N2c3ccccc3CC2c2nnn[nH]2)c2c(Cl)cc(Cl)cc2c1 (stereo not drawn) [Example 99, 5,7-Dichloro-4-{2-oxo-2-[2-(1H-tetrazol-5-yl)-2,3-dihydro-indol-1-yl]-ethoxy}-naphthalene-2-carboxylic acid]	5950	909		
O=C(COc1cc(C(=O)O)cc2cc(Cl)cc(Cl)c12)NCc1cccc(CO)c1 [Example 22, 5,7-Dichloro-4-[(3-hydroxymethylbenzylcarbamoyl)-methoxy]-naphthalene-2-carboxylic acid]	5400	236		
CC(C)(Oc1ccccc1NC(=O)COc1cc(C(=O)O)cc2cc(Cl)cc(Cl)c12)C(=O)O [Example 81, 4-{[2-(1-Carboxy-1-methyl-ethoxy)-phenylcarbamoyl]-methoxy}-5,7-dichloro-naphthalene-2-carboxylic acid]	11300	1190		
O=C(COc1cc(C(=O)O)cc2cc(Cl)cc(Cl)c12)Nc1ccc(OCc2nnn[nH]2)cc1 [Example 88, 5,7-Dichloro-4-{[4-(1H-tetrazol-5-ylmethoxy)-phenylcarbamoyl]-methoxy}-naphthalene-2-carboxylic acid]	3800	1540		
COC(=O)c1ccccc1NC(=O)COc1cc(C(=O)O)cc2cc(Cl)cc(Cl)c12 [Example 45, 5,7-Dichloro-4-[(2-methoxycarbonyl-phenylcarbamoyl)-methoxy]-naphthalene-2-carboxylic acid]		4270		
N#Cc1cccc(NC(=O)COc2cc(C(=O)O)cc3cc(Cl)cc(Cl)c23)c1 [Example 98, 5,7-Dichloro-4-[(3-cyano-phenylcarbamoyl)-methoxy]-naphthalene-2-carboxylic acid]		1120		
